According to article PMC11362529, “Exploring the neuroprotective potential of Nrf2-pathway activators against annonacin toxicity” (Scientific Reports, 2024):

Tests used:
Assay type in all cases: cell-based, human
Conditions in all cases: 48 h
HO-1 = HO-1 mRNA by RT-qPCR
Procedure: LUHMES cells were seeded on PLO/FN coated 6-well microplates and the pharmacological treatments were performed as previously explained. The cells were washed in HBSS, prior to being collected for mRNA isolation (RNeasy® Plus Mini Kit, Qiagen, Venlo, Netherlands), following the manufacturer’s instructions. The mRNA concentrations were determined on a Nano-Drop 2000c (Thermo Fisher Scientific) and 1 µg of mRNA was reverse-transcribed into cDNA with the iScript™ Reverse Transcription Supermix for RT-qPCR Kit (Bio-Rad) on a thermal cycler (SensoQuest, Göttingen, Germany). Real-time PCR was performed using SYBR™ Select Master Mix for CFX (Thermo Fisher Scientific) with 30 ng cDNA and 0.4 µM of primers against the respective target genes (Supplementary Table S3), in a 20 µl total volume, on a CFX96 Touch™ Real-Time Cycler (Bio-Rad). The relative expression of mRNA was calculated using the CFX Manager software (ΔΔCt method) from Bio-Rad, and the Ct values of the target-genes were normalized to the reference genes RPL22 and UBQLN1. The data were reported as fold change relative to the control (DMSO-treated) condition.

[1] = system: pSer-202 and pThr-205 tau; assay: AT8 (pSer-202/Thr-205 tau) immunofluorescence
Procedure: For immunostaining, cells were seeded in differentiation medium, on 24-well microplates containing PLO/FN-coated 13 mm Ø coverslips, and treated for 48 h as previously described. On the readout day, the medium was removed and cells were fixed, permeabilized and blocked as before. Primary antibody dilutions were made in 1.5% NHS in PBS (Supplementary Table S1) and incubated overnight at 4 °C. On the following day, the coverslips were washed three times with PBS and incubated with host-specific fluorescence secondary antibodies (Supplementary Table S1), for 2 h at RT, protected from light. After another three washes with PBS, cell nuclei were stained with 1:5,000 DAPI (4’,6-diamidino-2-phenylindole, Thermo Fisher Scientific) in PBS, for 15 min at RT. The coverslips were mounted in mowiol and left to dry for 24 h before imaging. Image acquisition for FI quantification was done with a 200 × magnification (20 × objective, 10 × intermediate magnification), or 400x (40 × objective, 10 × intermediate magnification) in the case of pSC-35 and AT8 immunostaining, on a fluorescence microscope Leica-DFC9000GTC (Leica). In the case of phospho-tau AT8, Z-stacks consisting of 18 plane images with a step size of 1 μm were acquired. The image acquisition parameters were identical for all conditions. Quantification of 8-OHdG (8-hydroxyguanosine) FI and tau species was performed using the ImageJ software. Ten-to-fifteen images per condition across triplicates, from different view fields, were used for this purpose. Briefly, TIFF exported images were submitted to background subtraction using the rolling ball method with a radius of 50 pixels. For 8-OHdG analysis, a channel-specific threshold was applied to all images to define the ROI and FI was measured and normalized to the cell number, determined by the DAPI channel. The average value of the different view fields per experimental condition was taken and reported as fold change compared to the control (DMSO-treated) condition. For the analysis of phospho-tau AT270 and pan-tau reactivity, channel specific thresholds were applied to all images. The DAPI channel was used to define nuclei from viable cells, by selecting particles with a size above 15 µm^2 and a circularity of 0.3–1.0. The obtained mask was submitted to “close” and “fill holes” processes to smooth the objects and fill in small holes, followed by nine “dilations” and one “watershed” to obtain a ROI covering exclusively the soma of viable cells. The obtained mask was combined with threshold images of phospho-tau AT270 and pan-tau in order to define the respective ROI of each tau species. These masks were used to quantify the number of somas expressing each of these tau species, as well as the respective FI. The number of AT270-positive somas was divided by the number of pan-tau-positive somas and expressed as a percentage. The AT270 FI was normalized to the pan-tau FI and the ratio presented as fold change relative to the control (DMSO-treated) condition. For quantification of pSC-35 and AT8 speckle number and FI, we used CellProfiler™ 4 (https://cellprofiler.org/, Broad Institute Inc., Cambridge, MA, USA) speckle counting pipeline. Twenty-to-thirty images per condition across triplicates were used for this purpose. ImageJ BIOP JACoP plugin was used for estimating co-localization of AT8 with DAPI-stained nuclei. Data were reported as fold change compared to the control (DMSO-treated) condition, or as Pearsonʹs coefficient values in case the of AT8 co-localization data.

LUHMES cells = assay: Neurite arborization analysis (Tuj-1 immunofluorescence)
Procedure: Cells were seeded in differentiation medium, onto 24-well microplates containing PLO/FN coated 13 mm Ø coverslips, and submitted to the described pharmacological treatments for 48 h. After this period, the medium was removed and cells were washed once with warm HBSS, and fixed with 4% PFA (paraformaldehyde) in PBS, for 20 min at RT (room temperature). After fixation, cells were washed twice with PBS and permeabilized with 0.1% Triton™ X-100 in PBS, for 20 min at RT. Next, cells were blocked in 1.5% NHS (normal horse serum) in PBS, for 1 h at RT, and incubated overnight with 1:1,000 Tuj-1 Alex 549-conjugated antibody (#801208, BioLegend, San Diego, CA, USA) in 1.5% NHS in PBS. After washing three times with PBS, cell nuclei were stained with 1:5,000 DAPI (4ʹ,6-diamidino-2-phenylindole, Thermo Fisher Scientific) in PBS, for 15 min at RT. The coverslips were mounted in mowiol, and left to dry for 24 h before imaging. Ten to fifteen images per condition, across triplicates, from different fields of view were taken on a fluorescence microscope Leica-DFC9000GTC (Leica) with 200 × magnification (20 × objective, 10 × intermediate magnification). Identical acquisition parameters were used for all images. Neurites density and arborization were quantified on TIFF exported images using the “neurite analyzer” plugin described before. The average value of the different view fields per experimental condition was taken and reported as fold change compared to the control (DMSO-treated) condition.

[2] = 20 nM annonacin alone, vs control
[3] = presence of 20 nM annonacin, vs DMSO control under annonacin
[4] = protective concentration of compound + 20 nM annonacin
[5] = protective concentration of compound + 20 nM annonacin, compared to annonacin

Structure (SMILES) | HO-1 mRNA expression (HO-1; 20 nM annonacin alone (DMSO control condition) vs DMSO control without annonacin) | Pearson´s coefficient between AT8 reactivity and DAPI-stained nuclei (r) ([1]; 20 nM annonacin alone) | AT8 fluorescence intensity [1, 2] | number of AT8 speckles per nucleus [1, 2] | number of quadruple points (LUHMES cells; 20 nM annonacin alone) | total branch length (LUHMES cells; 20 nM annonacin alone) | HO-1 mRNA expression (HO-1; absence of annonacin) | HO-1 mRNA expression (HO-1; [3]) | Pearson´s coefficient between AT8 reactivity and DAPI-stained nuclei (r) [1, 4] | AT8 fluorescence intensity [1, 5] | number of AT8 speckles [1, 5] | number of quadruple points (LUHMES cells; [4]) | total branch length (LUHMES cells; [4])
CCCCCCCCCCCC[C@@H](O)[C@H]1CC[C@H]([C@H](O)CCCC[C@H](O)CCCCC[C@@H](O)CC2=CC(C)OC2=O)O1 (some centres unmarked) [annonacin] | downregulation of both target-genes | 0.58 | statistically higher AT8 fluorescence intensity | non-significant propensity to increase the number of AT8 speckles per nucleus | 0.31 fold over control | 0.44 fold over control | – | – | – | – | – | – | –
O=C1[C@H](CC[C@H](O)c2ccc(F)cc2)[C@@H](c2ccc(O)cc2)N1c1ccc(F)cc1 [ezetimibe] | – | – | – | – | – | – | did not induce significant changes | did not induce significant changes | 0.45 | significant reduction | significant reduction of the number of AT8 speckles | 0.71 fold over control | significantly denser neural arborizations compared with the annonacin condition
C=CC(C)(C)c1cc(/C=C/C(=O)c2ccc(O)cc2)c(OC)cc1O [licochalcone A] | – | – | – | – | – | – | – | significantly rescued from this downregulation | 0.38 | significant reduction | significant reduction of the number of AT8 speckles | 0.81 fold over control | significantly denser neural arborizations compared with the annonacin condition
Cn1c(Nc2nc3ccc(C(F)(F)F)cc3s2)nc2cc(C(=O)NCCOCCO)ccc21 [HPP-D] | – | – | – | – | – | – | 19 fold over DMSO control | significantly rescued from this downregulation | – | – | – | approximately 0.50 fold over control | significantly denser neural arborizations compared with the annonacin condition
